pIC50: −log10 of the molar value.
Test system: SARS-CoV-2
Assay: microbe, parasite or virus in culture
Conditions: Severe acute respiratory syndrome coronavirus 2, Vero C1008, 48 h; for IC50: read-out: pIC50 (converted)

SMILES | pIC50 | IC50 [µM]
CN1N=C2CCN(C(=O)[C@@H](COCc3ccccc3)NC(=O)C(C)(C)N)C[C@@]2(Cc2ccccc2)C1=O [CAPROMORELIN] | < 4.70 | > 20
COc1cc(CNC(=O)CCCC/C=C/C(C)C)ccc1O [CAPSAICIN] | < 4.70 | > 20
C[C@H](CS)C(=O)N1CCC[C@H]1C(=O)O [CAPTOPRIL] | < 4.70 | > 20
COC(=O)N/N=C/c1c[n+]([O-])c2ccccc2[n+]1[O-] [CARBADOX] | < 4.70 | > 20
NC(=O)N1c2ccccc2C2OC2c2ccccc21 (configuration not stated) [CARBAMAZEPINE EPOXIDE] | < 4.70 | > 20
NC(=O)N1c2ccccc2C=Cc2ccccc21 [CARBAMAZEPINE] | < 4.70 | > 20
C[N+](C)(C)CCOC(N)=O [CARBAMOYLCHOLINE] | < 4.70 | > 20
CNC(=O)Oc1cccc2ccccc12 [CARBARIL] | < 4.70 | > 20
CCNC(=O)OC1CCN(c2nncc3cc(OC)c(OC)cc23)CC1 [CARBAZERAN] | < 4.70 | > 20
CN1C2=CC(=O)/C(=N\NC(N)=O)C=C2CC1S(=O)(=O)O (configuration not stated) [CARBAZOCHROME SULFONIC ACID] | < 4.70 | > 20
CC1(C)[C@@H](OC(=O)CCC(=O)O)CC[C@]2(C)[C@H]3C(=O)C=C4[C@@H]5C[C@@](C)(C(=O)O)CC[C@]5(C)CC[C@@]4(C)[C@]3(C)CC[C@@H]12 [CARBENOXOLONE] | < 4.70 | > 20
CCN(CC)CCOCCOC(=O)C1(c2ccccc2)CCCC1 [CARBETAPENTANE] | < 4.70 | > 20
C[C@@](Cc1ccc(O)c(O)c1)(NN)C(=O)O [CARBIDOPA ANHYDROUS] | < 4.70 | > 20
CCOC(=O)n1ccn(C)c1=S [CARBIMAZOLE] | < 4.70 | > 20
CN(C)CCOC(c1ccc(Cl)cc1)c1ccccn1 (configuration not stated) [CARBINOXAMINE] | < 4.70 | > 20
CCOC(C(=O)N(C)CCN(C)CCc1ccccc1)(c1ccccc1)c1ccccc1 [CARBIPHENE] | < 4.70 | > 20
CC1=C(C(=O)Nc2ccccc2)SCCO1 [CARBOXIN] | < 4.70 | > 20
NC(=O)c1nnn(Cc2cc(Cl)c(C(=O)c3ccc(Cl)cc3)c(Cl)c2)c1N [CARBOXYAMIDOTRIAZOLE] | < 4.70 | > 20
CCC(Br)(CC)C(=O)NC(N)=O [CARBROMAL] | < 4.70 | > 20
CCCCNC(=O)NS(=O)(=O)c1ccc(N)cc1 [CARBUTAMIDE] | < 4.70 | > 20
NCCC(=O)NCCc1c[nH]cn1 [CARCININE] | < 4.70 | > 20
CC(C)C[C@H](NC(=O)[C@H](CCc1ccccc1)NC(=O)CN1CCOCC1)C(=O)N[C@@H](Cc1ccccc1)C(=O)N[C@@H](CC(C)C)C(=O)[C@@]1(C)CO1 [CARFILZOMIB] | < 4.70 | > 20
CCCC(C)(COC(N)=O)COC(=O)NC(C)C (configuration not stated) [CARISOPRODOL] | < 4.70 | > 20
CCCCCCNC(=O)n1cc(F)c(=O)[nH]c1=O [CARMOFUR] | < 4.70 | > 20
O=NN(CCCl)C(=O)NCCCl [CARMUSTINE] | < 4.70 | > 20
COC(=S)NCCn1c([N+](=O)[O-])cnc1C [CARNIDAZOLE] | < 4.70 | > 20

SMILES | pIC50 | IC50 [µM]
C[N+](C)(C)CC(O)CC(=O)[O-] (configuration not stated) [CARNITINE] | < 4.70 | > 20
NCCC(=O)N[C@@H](Cc1c[nH]cn1)C(=O)O [CARNOSINE] | < 4.70 | > 20
NC(=O)CN1Cc2ccccc2OC1=O [CAROXAZONE] | < 4.70 | > 20
CC(C(=O)O)c1ccc2c(c1)[nH]c1ccc(Cl)cc12 (configuration not stated) [CARPROFEN] | < 4.70 | > 20
OC(CSc1ncnc2[nH]cnc12)CN1CCN(C(c2ccc(F)cc2)c2ccc(F)cc2)CC1 (configuration not stated) [CARSATRIN] | < 4.70 | > 20
CC(C)(C)NCC(O)COc1cccc2c1CCC(=O)N2 (configuration not stated) [CARTEOLOL] | < 4.70 | > 20
NS(=O)(=O)c1ccc(C(=O)O)cc1 [CARZENIDE] | < 4.70 | > 20
CC(=O)Oc1cc(OC(C)=O)c2c(c1)O[C@H](c1ccc(OC(C)=O)c(OC(C)=O)c1)[C@@H](OC(C)=O)C2 [CATECHIN PENTAACETATE] | < 4.70 | > 20
Oc1cc(O)c2c(c1)OC(c1ccc(O)c(O)c1)C(O)C2 (configuration not stated) [CATECHIN] | < 4.70 | > 20
COc1ccc([C@H](Cc2ccncc2)c2ccccc2)cc1OC1CCCC1 [CDP840] | < 4.70 | > 20
COC[C@H](O)Cn1c(=O)cnn(-c2ccc(Cl)c(C(=O)NCC3(O)CCCCCC3)c2)c1=O [CE-224535] | < 4.70 | > 20
COc1cc2c(Oc3ccc4[nH]c(C)cc4c3F)ncnc2cc1OCCCN1CCCC1 [CEDIRANIB] | < 4.70 | > 20
N[C@@H](C(=O)N[C@@H]1C(=O)N2C(C(=O)O)=C(Cl)CS[C@H]12)c1ccccc1 [CEFACLOR ANHYDROUS] | < 4.70 | > 20
Cn1nnnc1SCC1=C(C(=O)O)N2C(=O)[C@@H](NC(=O)[C@H](O)c3ccccc3)[C@H]2SC1 [CEFAMANDOLE] | < 4.70 | > 20
Cc1nnc(SCC2=C(C(=O)O)N3C(=O)[C@@H](NC(=O)Cn4cnnn4)[C@H]3SC2)s1 [CEFAZOLIN] | < 4.70 | > 20
C=CC1=C(C(=O)O)N2C(=O)[C@@H](NC(=O)/C(=N\OCC(=O)O)c3csc(N)n3)[C@H]2SC1 [CEFIXIME] | < 4.70 | > 20
CO[C@@]1(NC(=O)CSCC#N)C(=O)N2C(C(=O)O)=C(CSc3nnnn3C)CS[C@@H]21 [CEFMETAZOLE] | < 4.70 | > 20
CCN1CCN(C(=O)N[C@@H](C(=O)N[C@@H]2C(=O)N3C(C(=O)O)=C(CSc4nnnn4C)CS[C@H]23)c2ccc(O)cc2)C(=O)C1=O [CEFOPERAZONE] | < 4.70 | > 20
NCc1ccccc1CC(=O)N[C@@H]1C(=O)N2C(C(=O)O)=C(CSc3nnnn3CC(=O)O)CS[C@H]12 [CEFORANIDE] | < 4.70 | > 20
CO/N=C(\C(=O)N[C@@H]1C(=O)N2C(C(=O)O)=C(COC(C)=O)CS[C@H]12)c1csc(N)n1 [CEFOTAXIME] | < 4.70 | > 20
CO[C@@]1(NC(=O)C2SC(=C(C(N)=O)C(=O)O)S2)C(=O)N2C(C(=O)O)=C(CSc3nnnn3C)CS[C@@H]21 (some centres not stated) [CEFOTETAN] | < 4.70 | > 20
CN(C)CCn1nnnc1SCC1=C(C(=O)O)N2C(=O)[C@@H](NC(=O)Cc3csc(N)n3)[C@H]2SC1 [CEFOTIAM] | < 4.70 | > 20
CO[C@@]1(NC(=O)Cc2cccs2)C(=O)N2C(C(=O)O)=C(COC(N)=O)CS[C@@H]21 [CEFOXITIN] | < 4.70 | > 20
COCC1=C(C(=O)OC(C)OC(=O)OC(C)C)N2C(=O)[C@@H](NC(=O)/C(=N\OC)c3csc(N)n3)[C@H]2SC1 (some centres not stated) [CEFPODOXIME PROXETIL] | < 4.70 | > 20
CC(C)(O/N=C(\C(=O)N[C@@H]1C(=O)N2C(C(=O)[O-])=C(C[n+]3ccccc3)CS[C@H]12)c1csc(N)n1)C(=O)O [CEFTAZIDIME] | < 4.70 | > 20

Reference: ChEMBL document CHEMBL4651402, “Screening of ~5500 FDA-approved drugs and clinical candidates for anti-SARS-CoV-2 activity” (2021)
